Measurements from ChEMBL document CHEMBL3045377, “An aphid repellent glycoside from Solanum laxum” (2000).

Key:
Assay type in all cases: functional
Schizaphis graminum [1] = assay: Feeding deterrence activity against Schizaphis graminum fed on artificial diet containing compound assessed as relative survival at 100 uM after 12 hr by non-choice assay (reference value: 100 +/-0%)
Schizaphis graminum [2] = assay: Toxicity against Schizaphis graminum fed on artificial diet containing compound assessed as relative survival at 500 uM after 24 hr by non-choice assay (reference value: 100 +/-0%)
Schizaphis graminum [3] = assay: Feeding deterrence activity against Schizaphis graminum fed on artificial diet containing compound assessed as relative survival at 50 uM after 12 hr by non-choice assay (reference value: 100 +/-0%)
Schizaphis graminum [4] = assay: Feeding deterrence activity against Schizaphis graminum fed on artificial diet containing compound assessed as relative survival at 500 uM after 24 hr by non-choice assay (reference value: 100 +/-0%)
Schizaphis graminum [5] = assay: Feeding deterrence activity against Schizaphis graminum fed on artificial diet containing compound assessed as relative survival at 50 uM after 24 hr by non-choice assay (reference value: 100 +/-0%)
Schizaphis graminum [6] = assay: Toxicity against Schizaphis graminum fed on artificial diet containing compound assessed as relative survival at 100 uM after 24 hr by non-choice assay (reference value: 100 +/-0%)
Schizaphis graminum [7] = assay: Feeding deterrence activity against Schizaphis graminum fed on artificial diet containing compound assessed as relative survival at 100 uM after 24 hr by non-choice assay (reference value: 100 +/-0%)
Schizaphis graminum [8] = assay: Toxicity against Schizaphis graminum fed on artificial diet containing compound assessed as relative survival at 50 uM after 24 hr by non-choice assay (reference value: 100 +/-0%)
Schizaphis graminum [9] = assay: Feeding deterrence activity against Schizaphis graminum fed on artificial diet containing compound assessed as relative survival at 250 uM after 24 hr by non-choice assay (reference value: 100 +/-0%)
Schizaphis graminum [10] = assay: Feeding deterrence activity against Schizaphis graminum fed on artificial diet containing compound assessed as relative survival at 500 uM after 12 hr by non-choice assay (reference value: 100 +/-0%)
Schizaphis graminum [11] = assay: Toxicity against Schizaphis graminum fed on artificial diet containing compound assessed as relative survival at 250 uM after 24 hr by non-choice assay (reference value: 100 +/-0%)
Schizaphis graminum [12] = assay: Feeding deterrence activity against Schizaphis graminum fed on artificial diet containing compound assessed as relative survival at 250 uM after 12 hr by non-choice assay (reference value: 100 +/-0%)

C[C@H]1CC[C@@]2(OC1)O[C@H]1[C@H](O)[C@H]3[C@@H]4CC=C5C[C@@H](O[C@@H]6O[C@H](CO)[C@H](O[C@@H]7O[C@H](CO)[C@@H](O)[C@H](O)[C@H]7O[C@@H]7O[C@H](CO)[C@@H](O)[C@H](O)[C@H]7O)[C@H](O)[C@H]6O[C@@H]6O[C@@H](C)[C@H](O)[C@@H](O)[C@H]6O)CC[C@]5(C)[C@H]4CC[C@]3(C)[C@H]1[C@@H]2C [Luciamin]
survival at 100 µM (Schizaphis graminum [1]): 80% | survival at 500 µM (Schizaphis graminum [2]): 40% | survival at 50 µM (Schizaphis graminum [3]): 93% | survival at 500 µM (Schizaphis graminum [4]): 76% | survival at 50 µM (Schizaphis graminum [5]): 64% | survival at 100 µM (Schizaphis graminum [6]): 49% | survival at 100 µM (Schizaphis graminum [7]): 70% | survival at 50 µM (Schizaphis graminum [8]): 47% | survival at 250 µM (Schizaphis graminum [9]): 72% | survival at 500 µM (Schizaphis graminum [10]): 70% | survival at 250 µM (Schizaphis graminum [11]): 48% | survival at 250 µM (Schizaphis graminum [12]): 85%
